How the values were obtained:
[1] = test system: rat brain slices; experiment: ex vivo incubation of rat brain slices, levels of PEA and OEA; type: cell-based; details: rat brain slices incubated ex vivo for 15, 30 or 60 min; FIG. 1
Excerpt: The values, mean and DS, are expressed as molar % of the total fatty acids. Different letters indicate significant differences (p<0.05); the One-way ANOVA statistical analysis was used, with Tukey test for post-hoc analysis. Similar results were obtained by using pure (99%) c9,t11 isomer.
(§1) The methods employed for the analysis of the levels of conjugated linoleic acid, PEA and OEA in vivo and in vitro are described in detail in (Melis et al. 2001) and in (Piscitelli et al. 2011), respectively.
On the contrary, WY14643 (WY), a synthetic agonist of PPAR alpha used as a comparison since it is an inductor of PPAR alpha, increases the levels of PEA and OEA by about 3-4 times (FIG. 1B).

[2] = test system: TNF alpha in astrocytes; experiment: TNF alpha in cultures of astrocytes after induced neuroinflammation with LPS; type: cell-based; details: treatment then LPS, oleic acid as control, p<0.05, FIG. 3
Excerpt: (§2) Since astrocytes are involved in neuroinflammation, the action of CLA (80% c9,t11 isomer) was also verified in cultures of astrocytes after having induced neuroinflammation with LPS. Oleic acid was used as a control.

[3] = test system: frontal cortex of mice; experiment: in vivo administration to mice, levels of OEA in the frontal cortex; details: acute administration 12 hours prior to sacrifice, FIG. 2
Excerpt: The values, mean and DS, are expressed as pmoles/g tissue. Different letters indicate significant differences (p<0.05); the One-way ANOVA statistical analysis was used, with Tukey test for post-hoc analysis.
as §1, §2

[4] = test system: TNF alpha in microglia; experiment: TNF alpha in microglia in vitro; type: cell-based
Excerpt: The PEA and OEA increase, since it sustains PPAR alpha activation, is crucial for the physiologic response to neuroinflammatory events, in addition to preserving the homeostasis of the dopaminergic system. In fact, CLA can reduce in vitro the levels of TNF alpha in both astrocytes and microglia.

Compound | increase of the levels of OEA [1] | increase of the levels of PEA [1] | TNF alpha in cultured astrocytes [2] | TNF alpha in cultured astrocytes ([2]; listed as CLA) | levels of OEA in the frontal cortex [3] | levels of TNF alpha in microglia [4]
conjugated linoleic acid [CLA (80% c9,t11 isomer)] | about 5 times | about 5 times | significant decrease | reduce | significantly increases | reduce
Cc1cccc(Nc2cc(Cl)nc(SCC(=O)O)n2)c1C [WY14643, reference compound] | 3-4 times | 3-4 times | – | – | – | –
